Measured values from patent US11771659B2, “Treating disease and promoting weight loss by inhibiting the TMA/FMO3/TMAO pathway” (The Cleveland Clinic Foundation, priority 2017, dated 2023).

Tests used:
[1] = test system: male C57BL6/J mice on 60% high fat diet; experiment: TMA lyase inhibition in high fat diet-fed mice (HFD vs HFD+IMC); type: in vivo; details: 0.06% IMC in 60% high fat diet, 6-week-old male C57BL6/J mice
Procedure: 6-week-old male C57BL6/J mice were maintained on either 60% high fat diet (HFD) or HFD supplemented with 0.06% TMA lyase inhibitor iodomethyl choline (HFD+IMC) for weeks. Results are shown in FIG. 7 (A-E): A) Plasma TMA and TMAO levels (uM); B) Body weight (g); C) Food consumption normalized to body weight (g of diet consumed per day per g of body weight); D) Glucose tolerance measured after 12 weeks on diet; and E) Plasma insulin measured following an overnight fast (Fasted) or 4 hours postprandially (Fed); n=4-5 mice/group.
To determine the role of TMA and TMAO on diet-induced obesity, cohorts of 6-week-old male C57BL6/J mice fed HFD and HFD+IMC were supplemented with either 100 mM TMA in the drinking water (K-M) or 0.3% w/w TMAO in the diet (N-P). […] FIGS. 7K-P specifically show: K) Plasma TMA and TMAO levels (uM) after 6 weeks on diet and TMA supplementation; L) Body weight (g) over 12 weeks; M) Glucose tolerance measured after 10 weeks on diet and TMA supplementation; N) Plasma TMA and TMAO levels (uM) after 12 weeks on diet and TMAO supplementation; O) Body weight (g) over 20 weeks; and P) Glucose tolerance measured after 12 weeks on diet and TMAO supplementation. n=8-10 mice per diet group for all studies unless otherwise indicated. […] Statistical significance determined using student's t-test or two-way ANOVA where appropriate. […]

[2] = test system: male leptin deficient ob/ob mice; experiment: TMA lyase inhibition in leptin deficient ob/ob mice (Con vs Con+IMC); type: in vivo; details: 0.06% IMC in control diet, 16 weeks
From the text: 6-week-old male leptin deficient ob/ob mice were maintained on either control diet (Con) or control diet supplemented with 0.06% TMA lyase inhibitor iodomethyl choline (Con+IMC) for 16 weeks. Results are shown in FIG. 7(F-J): F) Plasma TMA and TMAO levels (uM); G) Body weight (g); H) Food consumption normalized to body weight (g of diet consumed per day per g of body weight); I) Glucose tolerance measured after 12 weeks on diet; and J) Mean oxygen consumption (VO2; ml/kg/hr) measured after 5 weeks on diet; n=6 mice/group.
FIG. 8A-F represents data from HFD model and G-K the Ob/Ob model. FIG. 8A,G. Principal co-ordinate analysis (PCoA) plot of microbiota profiles built from weighted Unifrac distances. Each point represents a single sample from a single mouse. Positions of points in space display dissimilarities in the microbiota, with points further from one another being more dissimilar. FIG. 8B,H. Barplot of cecal microbiota at the phylum level. Each bar represents an individual mouse and each color an individual phyla. FIG. 8C. Relative abundance of Firmicutes, Bacteroidetes and the Firmicutes to Baceteroidetes ratio for mice on HFD with or without IMC. […] Points extending beyond the lines are outliers defined as values greater or less than 1.5 times the interquartile range. […] FIG. 8E,J. Spearman's correlation between Akkermansia muciniphila and TMA/body weight. […]

[3] = test system: G protein-coupled receptor trace amine-associated receptor 5 (TAAR5); details: Li et al., 2013; cited from earlier work

C[N+](C)(CI)CCO [IMC, iodomethyl choline]
obesity driven by high fat diet [1]: improves obesity | obesity driven by leptin deficiency [2]: improves obesity

CN(C)C [TMA, trimethylamine]
activation/recognition of TAAR5 [3]: known to activate

C[N+](C)(C)[O-] [TMAO, trimethylamine-N-oxide]
activation/recognition of TAAR5 [3]: does not recognize
